# Source: PubChem BioAssay (NCI)
#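 The concentration for 50% growth inhibition is given as GI50. TGI: total growth inhibition.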
# Assays:
# Assay in all cases: NCI anticancer screen, dose series, 384-well format
# [1] = test system: PC-3 prostate
# [2] = test system: TK-10 renal
# [3] = test system: NCI-H460 NSCLC
# [4] = test system: T-47D breast
# [5] = test system: SW-620 colon
# [6] = test system: 786-0 renal
# [7] = test system: HL-60(TB) leukemia
# [8] = test system: OVCAR-8 ovarian
# [9] = test system: LOX IMVI melanoma
# [10] = test system: HOP-62 NSCLC
# [11] = test system: K-562 leukemia
# [12] = test system: BT-549 breast
# [13] = test system: RPMI-8226 leukemia
# [14] = test system: OVCAR-5 ovarian
# [15] = test system: UACC-257 melanoma
# [16] = test system: HS 578T breast
# [17] = test system: SK-OV-3 ovarian
# [18] = test system: A549 NSCLC
# [19] = test system: COLO 205 colon
# [20] = test system: MDA-MB-231 breast
# [21] = test system: MCF7 breast
# [22] = test system: SNB-75 CNS
# [23] = test system: U251 glioblastoma
# [24] = test system: EKVX NSCLC
# [25] = test system: OVCAR-4 ovarian
# [26] = test system: NCI/ADR-RES ovarian
# [27] = test system: CAKI-1 renal
# [28] = test system: ACHN renal
# [29] = test system: MDA-MB-435 melanoma
# [30] = test system: SK-MEL-5 melanoma
# [31] = test system: OVCAR-3 ovarian
# [32] = test system: SN12C renal
# [33] = test system: A498 renal
# [34] = test system: CCRF-CEM leukemia
# [35] = test system: IGROV1 ovarian
# [36] = test system: M14 melanoma
# [37] = test system: NCI-H226 lung
# [38] = test system: NCI-H522 lung
# [39] = test system: HT29 colon
# [40] = test system: MOLT-4 leukemia
# [41] = test system: RXF 393 renal
# [42] = test system: HCC-2998 colon
# [43] = test system: MALME-3M melanoma
# [44] = test system: SK-MEL-28 melanoma
# [45] = test system: SF-268 CNS
# [46] = test system: NCI-H322M lung
# [47] = test system: UO-31 renal
# [48] = test system: MDA-MB-468 breast
# [49] = test system: HCT-15 colon
# [50] = test system: HOP-92 NSCLC
# [51] = test system: SF-295 CNS
# [52] = test system: NCI-H23 lung
# [53] = test system: KM12 colon
# [54] = test system: SNB-19 CNS
# [55] = test system: DU-145 prostate
# [56] = test system: SR leukemia
# [57] = test system: HCT-116 colon
# [58] = test system: SF-539 CNS
structure (smiles),measurement,setting,value
Cc1ccccc1N=Nc1ccc(NC(=O)c2ccnn2C)c(C)c1,GI50,[1],> 100 µM
same,TGI,[1],> 100 µM
same,GI50,[2],63.7 µM
same,TGI,[2],> 100 µM
same,GI50,[3],6.69 µM
same,TGI,[3],27.3 µM
same,GI50,[4],8.3 µM
same,TGI,[4],> 100 µM
same,GI50,[5],> 100 µM
same,TGI,[5],> 100 µM
same,GI50,[6],68.8 µM
same,TGI,[6],> 100 µM
same,GI50,[7],34.4 µM
same,TGI,[7],> 100 µM
same,GI50,[8],46.4 µM
same,TGI,[8],> 100 µM
same,GI50,[9],39.4 µM
same,TGI,[9],> 100 µM
same,GI50,[10],37.2 µM
same,TGI,[10],> 100 µM
same,GI50,[11],7.47 µM
same,TGI,[11],> 100 µM
same,GI50,[12],48.6 µM
same,TGI,[12],> 100 µM
same,GI50,[13],5.58 µM
same,TGI,[13],> 100 µM
same,GI50,[14],> 100 µM
same,TGI,[14],> 100 µM
same,GI50,[15],40.2 µM
same,TGI,[15],> 100 µM
same,GI50,[16],27.8 µM
same,TGI,[16],> 100 µM
same,GI50,[17],> 100 µM
same,TGI,[17],> 100 µM
same,GI50,[18],> 100 µM
same,TGI,[18],> 100 µM
same,GI50,[19],> 100 µM
same,TGI,[19],> 100 µM
same,GI50,[20],92.8 µM
same,TGI,[20],> 100 µM
same,GI50,[21],36.8 µM
same,TGI,[21],> 100 µM
same,GI50,[22],25.8 µM
same,TGI,[22],99.7 µM
same,GI50,[23],18 µM
same,TGI,[23],73.1 µM
same,GI50,[24],23.2 µM
same,TGI,[24],> 100 µM
same,GI50,[25],47.7 µM
same,TGI,[25],> 100 µM
same,GI50,[26],6.99 µM
same,TGI,[26],> 100 µM
same,GI50,[27],> 100 µM
same,TGI,[27],> 100 µM
same,GI50,[28],95.2 µM
same,TGI,[28],> 100 µM
same,GI50,[29],> 100 µM
same,TGI,[29],> 100 µM
same,GI50,[30],11.2 µM
same,TGI,[30],87.1 µM
same,GI50,[31],> 100 µM
same,TGI,[31],> 100 µM
same,GI50,[32],> 100 µM
same,TGI,[32],> 100 µM
same,GI50,[33],90.4 µM
same,TGI,[33],> 100 µM
same,GI50,[34],13.8 µM
same,TGI,[34],> 100 µM
same,GI50,[35],> 100 µM
same,TGI,[35],> 100 µM
same,GI50,[36],> 100 µM
same,TGI,[36],> 100 µM
same,GI50,[37],31.5 µM
same,TGI,[37],> 100 µM
same,GI50,[38],15.4 µM
same,TGI,[38],93.1 µM
same,GI50,[39],> 100 µM
same,TGI,[39],> 100 µM
same,GI50,[40],30.4 µM
same,TGI,[40],> 100 µM
same,GI50,[41],5.29 µM
same,TGI,[41],23.7 µM
same,GI50,[42],> 100 µM
same,TGI,[42],> 100 µM
same,GI50,[43],> 100 µM
same,TGI,[43],> 100 µM
same,GI50,[44],> 100 µM
same,TGI,[44],> 100 µM
same,GI50,[45],96.7 µM
same,TGI,[45],> 100 µM
same,GI50,[46],51.9 µM
same,TGI,[46],> 100 µM
same,GI50,[47],> 100 µM
same,TGI,[47],> 100 µM
same,GI50,[48],3.87 µM
same,TGI,[48],59.4 µM
same,GI50,[49],54.4 µM
same,TGI,[49],> 100 µM
same,GI50,[50],34.8 µM
same,TGI,[50],> 100 µM
same,GI50,[51],27.1 µM
same,TGI,[51],> 100 µM
same,GI50,[52],13.6 µM
same,TGI,[52],> 100 µM
same,GI50,[53],> 100 µM
same,TGI,[53],> 100 µM
same,GI50,[54],> 100 µM
same,TGI,[54],> 100 µM
same,GI50,[55],> 100 µM
same,TGI,[55],> 100 µM
same,GI50,[56],2 µM
same,TGI,[56],7.31 µM
same,GI50,[57],13.1 µM
same,TGI,[57],> 100 µM
same,GI50,[58],> 100 µM
same,TGI,[58],> 100 µM
